Reference: ChEMBL document CHEMBL1140535, “Synthesis and evaluation of substituted benzoisoquinolinones as potent inhibitors of Chk1 kinase” (Bioorg Med Chem Lett, 2007)
The source made the active and inactive calls. No cut-off for these calls is given here.

Columns and labels:
[1] = molecular target: T1, Serine/threonine-protein kinase Chk1 (Homo sapiens, UniProt O14757); test: Inhibition of human Chk1 expressed in baculovirus by time-resolved fluorescence assay
T1 sequence (O14757 whole entry): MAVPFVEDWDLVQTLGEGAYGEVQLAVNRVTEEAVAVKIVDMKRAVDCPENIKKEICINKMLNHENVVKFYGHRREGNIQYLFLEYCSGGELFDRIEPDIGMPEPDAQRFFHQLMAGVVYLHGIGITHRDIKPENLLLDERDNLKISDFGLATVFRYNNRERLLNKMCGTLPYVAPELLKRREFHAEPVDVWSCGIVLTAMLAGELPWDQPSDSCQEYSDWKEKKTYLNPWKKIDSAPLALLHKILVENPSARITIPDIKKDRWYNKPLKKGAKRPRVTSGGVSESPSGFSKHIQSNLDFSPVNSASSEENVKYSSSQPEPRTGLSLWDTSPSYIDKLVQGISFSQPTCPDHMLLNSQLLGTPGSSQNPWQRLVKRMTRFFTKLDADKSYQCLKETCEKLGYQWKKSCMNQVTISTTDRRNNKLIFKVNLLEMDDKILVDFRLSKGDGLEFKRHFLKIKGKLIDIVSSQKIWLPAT

NCI-H1299 = test: Inhibition of camptothecin induced mitotic arrest in human NCI-H1299 cells after 18 hrs; format: functional, cell-based; settings: NCI-H1299, 18 h
HT-29 [2] = test: Effect on apoptosis in HT29 cells assessed as increase in camptothecin induced caspase 3 activation after 24 hrs; format: functional, cell-based; settings: Homo sapiens
HT-29 [3] = test: Effect on apoptosis in HT29 cells assessed as increase in caspase 3 activation after 24 hrs; format: functional, cell-based; settings: Homo sapiens

Structure (SMILES)	IC50 [1] [µM]	EC50 (NCI-H1299) [µM]	Activity (HT-29 [2])	Activity (HT-29 [3])
N#Cc1cc2cc[nH]c(=O)c2c2cc(Cl)ccc12	1.06			
NCCCc1cc2c(-c3ccc(Cl)cc3Cl)c[nH]c(=O)c2c2cc(-c3cn[nH]c3)ccc12	0.0012	0.27		
NCCCc1cc2c(-c3ccc(O)cc3)c[nH]c(=O)c2c2cc(-c3cn[nH]c3)ccc12	0.0003	0.047		
CNCCc1cc2cc[nH]c(=O)c2c2cc(Br)ccc12	0.044			
O=c1[nH]ccc2c3[nH]c(-c4ccccc4)nc3c3ccc(F)cc3c12	1.08			
N#Cc1ccc2c(CCCN)cc3cc[nH]c(=O)c3c2c1	0.025	2.2		
NCCCc1cc2c(-c3cccc(O)c3)c[nH]c(=O)c2c2cc(-c3cn[nH]c3)ccc12	0.001	0.067		
NCCCc1cc2c(-c3ccc(F)cc3)c[nH]c(=O)c2c2cc(-c3cn[nH]c3)ccc12	0.0035	0.37		
O=c1[nH]ccc2c3[nH]cnc3c3ccc(F)cc3c12	0.61			
NCCCc1cc2cc[nH]c(=O)c2c2cc(-c3ccc(CN)cc3)ccc12	0.0065	1.08		
NCCCc1cc2c(-c3ccccc3F)c[nH]c(=O)c2c2cc(-c3cn[nH]c3)ccc12	0.0026	0.37		
NCCCc1cc2c(Br)c[nH]c(=O)c2c2cc(-c3cn[nH]c3)ccc12	0.0023	0.14		
NCCCc1cc2c(-c3ccccc3)c[nH]c(=O)c2c2cc(-c3cn[nH]c3)ccc12	0.002	0.14		
NCCCc1cc2cc[nH]c(=O)c2c2cc(Br)ccc12	0.017	0.31		
NCCCc1cc2c(-c3ccc(Cl)cc3)c[nH]c(=O)c2c2cc(-c3cn[nH]c3)ccc12	0.0012	0.32		
CN(C)CCc1cc2cc[nH]c(=O)c2c2cc(Br)ccc12	0.13			
NCCc1cc2cc[nH]c(=O)c2c2cc(Cl)ccc12	0.011			
COC(=O)c1cc2cc[nH]c(=O)c2c2cc(Br)ccc12	0.3			
CN(C)CCNC(=O)c1ccc2c(CCCN)cc3cc[nH]c(=O)c3c2c1	0.002	> 10		

More lines, main results first:

IC50 [1] [µM]	EC50 (NCI-H1299) [µM]	Structure (SMILES)	Activity (HT-29 [2])	Activity (HT-29 [3])
0.098		NCCCc1cc2cc[nH]c(=O)c2c2ccccc12		
0.0008	0.13	NCCCc1cc2c(-c3ccccc3Cl)c[nH]c(=O)c2c2cc(-c3cn[nH]c3)ccc12		
0.0035	0.064	NCCCc1cc2cc[nH]c(=O)c2c2cc(-c3cn[nH]c3)ccc12		
0.003	0.079	NCCc1cc2cc[nH]c(=O)c2c2cc(-c3cn[nH]c3)ccc12	Active	inactive
0.78		O=c1[nH]ccc2cc(CCO)c3ccc(Br)cc3c12		
0.58		O=c1[nH]ccc2ccc3ccc(Cl)cc3c12		
0.0092	0.957	Cn1cc(-c2ccc3c(CCCN)cc4cc[nH]c(=O)c4c3c2)cn1		
0.0115	1.05	NCCCc1cc2c(-c3cccc(Cl)c3)c[nH]c(=O)c2c2cc(-c3cn[nH]c3)ccc12		
0.51		N#CCCc1cc2cc[nH]c(=O)c2c2cc(Cl)ccc12		
0.0005	0.014	NCCc1cc2cc[nH]c(=O)c2c2cc(-c3ccc[nH]3)ccc12		
0.003		NCCc1cc2cc[nH]c(=O)c2c2cc(Br)ccc12		
0.0043	0.15	NCCCc1cc2cc[nH]c(=O)c2c2cc(-c3ccn[nH]3)ccc12		
0.4		N#Cc1cc2cc[nH]c(=O)c2c2cc(Br)ccc12		
0.0037	0.3	NCCCc1cc2c(-c3cccc(F)c3)c[nH]c(=O)c2c2cc(-c3cn[nH]c3)ccc12		
0.44		O=c1[nH]ccc2cc(CO)c3ccc(Br)cc3c12		
0.0024	0.044	NCCCc1cc2cc[nH]c(=O)c2c2cc(-c3ccc[nH]3)ccc12		
0.011	> 10	NCCCc1cc2cc[nH]c(=O)c2c2cc(C(N)=O)ccc12		
0.11		O=c1[nH]ccc2c3[nH]c(-c4cccnc4)nc3c3ccc(F)cc3c12		
0.36		COC(=O)c1cc2cc[nH]c(=O)c2c2cc(Cl)ccc12		
0.002	0.23	NCCCc1cc2c(-c3ccccc3O)c[nH]c(=O)c2c2cc(-c3cn[nH]c3)ccc12		
0.0036	0.21	C=Cc1c[nH]c(=O)c2c1cc(CCCN)c1ccc(-c3cn[nH]c3)cc12		
0.012	0.23	NCCCc1cc2cc[nH]c(=O)c2c2cc(Cl)ccc12		
0.0025	0.1	NCCc1cc2cc[nH]c(=O)c2c2cc(-c3ccn[nH]3)ccc12		
0.42		N#CCCc1cc2cc[nH]c(=O)c2c2cc(Br)ccc12		
0.0006	0.13	NCCc1cc2cc[nH]c(=O)c2c2cc(-c3ccc(CN4CCOCC4)cc3)ccc12		
